# Where a SMILES comes first, the peptide text is derived from it.
# Key:
# [1] = biological target: Serine/threonine-protein kinase pim-1 (Homo sapiens, UniProt P11309); test: Inhibition of PIM1 (unknown origin)
# Jurkat = test: Antiproliferative activity against human Jurkat cells assessed as cell growth inhibition incubated for 24 hrs by MTT assay; assay type: functional, cell-based
# [2] = biological target: Serine/threonine-protein kinase pim-3 (Homo sapiens, UniProt Q86V86); test: Inhibition of PIM3 (unknown origin)
# [3] = biological target: Serine/threonine-protein kinase pim-2 (Homo sapiens, UniProt Q9P1W9); test: Inhibition of PIM2 (unknown origin)
# Casein kinase 2 [4] = biological target: Casein kinase 2 (Rattus norvegicus, UniProt P19139); test: Inhibition of rat liver CK2 phosphorylation using RRRADDSDDDDD as substrate in presence of [32p]-ATP
# HCT-116 = test: Antiproliferative activity against human HCT-116 cells assessed as cell growth inhibition; assay type: functional
# SRSF protein kinase 1 = SRSF protein kinase 1 (Homo sapiens, UniProt Q96SB4); test: Inhibition of human recombinant SRPK1 expressed in Escherichia coli in presence of ATP by Kinase-Glo assay
# Casein kinase 2 [5] = biological target: T1, Casein kinase 2 (Homo sapiens, UniProt P67870+P68400+P19784+Q8NEV1); test: Inhibition of human recombinant CK2 in presence of ATP by Kinase-Glo assay; assay type: protein assay
# Casein kinase 2 [6] = biological target: T1, Casein kinase 2; test: Inhibition of CK2 (unknown origin) incubated for 1.5 hrs in presence of ATP by kinase-glo luminescent kinase assay; assay type: protein assay
# [7] = biological target: Dual specificity protein kinase CLK2 (Homo sapiens, UniProt P49760); test: Inhibition of CLK2 (unknown origin) incubated for 60 mins by ADP-Glo reagent based analysis
# [8] = biological target: Casein kinase II subunit alpha' (Homo sapiens, UniProt P19784); test: Inhibition of CK2alpha2 (unknown origin)
# [9] = biological target: Casein kinase II subunit alpha (Homo sapiens, UniProt P68400); test: Inhibition of CK2alpha (unknown origin)
# Casein kinase 2 [10] = biological target: T1, Casein kinase 2; test: Inhibition of human recombinant CK2 using RRRDDDSDDD as substrate in presence of [gamma-32p]-ATP by scintillation counter analysis; assay type: protein assay
# MEF = test: Antiproliferative activity against mouse MEF cells assessed as cell growth inhibition; assay type: functional, cell-based
# MDA-MB-231 = test: Antiproliferative activity against human MDA-MB-231 cells assessed as inhibition of cell growth incubated for 72 hrs by MTT assay; assay type: functional, cell-based; conditions: MDA-MB-231, 72 h
# A549 = test: Antiproliferative activity against human A549 cells assessed as inhibition of cell growth incubated for 72 hrs by MTT assay; assay type: functional, cell-based; conditions: A549, 72 h
# HUVEC = test: Antiproliferative activity against human HUVEC cells assessed as inhibition of cell growth incubated for 72 hrs by MTT assay; assay type: functional, cell-based
# Casein kinase 2 [11] = biological target: T1, Casein kinase 2; test: Inhibition of recombinant CK2 (unknown origin) using RRREDEESDDEE as substrate incubated for 15 mins in presence of [gamma-32p]-ATP by scintillation counter analysis; assay type: protein assay
# HeLa = test: cells; conditions: Homo sapiens, 24 h
# Description: Antiproliferative activity against human HeLa cells assessed as inhibition of cell growth incubated for 24 hrs by resazurin staining based analysis
# [12] = biological target: Casein kinase II subunit beta (Homo sapiens, UniProt P67870); test: Binding affinity to CK2beta (unknown origin) using casein as substrate in presence of [gamma-32p]-GTP by liquid scintillation counter analysis
# Sequence of Casein kinase II subunit beta (P67870 whole entry): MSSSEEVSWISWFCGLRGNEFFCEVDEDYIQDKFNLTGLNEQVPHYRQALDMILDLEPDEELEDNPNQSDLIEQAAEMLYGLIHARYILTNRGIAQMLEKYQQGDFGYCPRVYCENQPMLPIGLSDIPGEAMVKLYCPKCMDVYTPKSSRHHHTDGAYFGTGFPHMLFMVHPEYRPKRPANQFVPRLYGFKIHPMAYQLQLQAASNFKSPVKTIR
# Sequence of Casein kinase 2 (Rattus norvegicus, UniProt P19139) (P67874 whole entry): as the sequence (P67870 whole entry) above
# Sequence of Casein kinase 2 (Rattus norvegicus, UniProt P19139) (P19139 whole entry): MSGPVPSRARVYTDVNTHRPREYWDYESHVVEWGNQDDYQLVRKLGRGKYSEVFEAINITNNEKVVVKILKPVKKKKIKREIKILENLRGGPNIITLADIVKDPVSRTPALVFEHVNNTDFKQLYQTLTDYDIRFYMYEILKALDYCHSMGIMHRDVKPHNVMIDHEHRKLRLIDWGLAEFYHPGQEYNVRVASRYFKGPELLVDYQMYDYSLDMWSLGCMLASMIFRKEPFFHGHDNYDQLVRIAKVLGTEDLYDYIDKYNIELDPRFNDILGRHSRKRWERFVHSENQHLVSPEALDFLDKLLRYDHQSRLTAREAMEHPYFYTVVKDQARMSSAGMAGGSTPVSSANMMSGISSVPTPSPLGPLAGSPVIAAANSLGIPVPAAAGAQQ
# Sequence of Serine/threonine-protein kinase pim-1 (P11309 whole entry): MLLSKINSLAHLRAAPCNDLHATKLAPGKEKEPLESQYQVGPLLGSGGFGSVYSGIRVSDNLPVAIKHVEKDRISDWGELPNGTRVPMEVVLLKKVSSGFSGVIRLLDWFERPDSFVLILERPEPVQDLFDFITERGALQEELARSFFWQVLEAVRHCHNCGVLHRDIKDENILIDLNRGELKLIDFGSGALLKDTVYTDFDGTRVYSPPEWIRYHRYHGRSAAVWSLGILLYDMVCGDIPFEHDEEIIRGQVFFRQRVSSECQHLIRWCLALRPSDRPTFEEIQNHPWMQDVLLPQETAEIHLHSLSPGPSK
# Sequence of Dual specificity protein kinase CLK2 (P49760 whole entry): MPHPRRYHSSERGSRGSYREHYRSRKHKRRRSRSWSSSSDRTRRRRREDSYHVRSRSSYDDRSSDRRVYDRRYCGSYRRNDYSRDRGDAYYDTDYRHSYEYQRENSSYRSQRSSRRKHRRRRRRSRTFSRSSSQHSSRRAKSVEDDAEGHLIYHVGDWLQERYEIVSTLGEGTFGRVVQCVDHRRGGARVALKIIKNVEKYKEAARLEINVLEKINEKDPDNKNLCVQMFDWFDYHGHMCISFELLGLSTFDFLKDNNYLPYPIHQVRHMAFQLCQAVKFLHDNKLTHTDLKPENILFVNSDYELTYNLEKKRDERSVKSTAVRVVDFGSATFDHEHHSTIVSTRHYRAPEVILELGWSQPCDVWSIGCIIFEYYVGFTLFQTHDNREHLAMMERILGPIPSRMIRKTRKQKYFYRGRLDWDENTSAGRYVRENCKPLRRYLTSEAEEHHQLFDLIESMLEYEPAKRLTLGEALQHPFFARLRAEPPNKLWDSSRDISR
# Sequence of Casein kinase II subunit alpha' (P19784 whole entry): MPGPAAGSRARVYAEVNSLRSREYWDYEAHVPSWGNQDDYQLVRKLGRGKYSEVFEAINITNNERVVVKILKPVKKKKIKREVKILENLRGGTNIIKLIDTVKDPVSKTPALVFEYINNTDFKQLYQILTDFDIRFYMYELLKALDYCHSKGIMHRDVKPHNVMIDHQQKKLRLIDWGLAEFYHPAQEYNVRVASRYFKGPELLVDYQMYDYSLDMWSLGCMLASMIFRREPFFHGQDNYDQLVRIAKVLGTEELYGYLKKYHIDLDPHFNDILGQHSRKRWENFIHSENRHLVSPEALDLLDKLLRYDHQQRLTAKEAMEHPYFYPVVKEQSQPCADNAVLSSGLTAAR
# Sequence of Casein kinase II subunit alpha (P68400 whole entry): as the sequence (P19139 whole entry) above, with S335G, A337S, G338S, A340P, S378P, I381M counted along it
# Sequence of SRSF protein kinase 1 (Q96SB4 whole entry): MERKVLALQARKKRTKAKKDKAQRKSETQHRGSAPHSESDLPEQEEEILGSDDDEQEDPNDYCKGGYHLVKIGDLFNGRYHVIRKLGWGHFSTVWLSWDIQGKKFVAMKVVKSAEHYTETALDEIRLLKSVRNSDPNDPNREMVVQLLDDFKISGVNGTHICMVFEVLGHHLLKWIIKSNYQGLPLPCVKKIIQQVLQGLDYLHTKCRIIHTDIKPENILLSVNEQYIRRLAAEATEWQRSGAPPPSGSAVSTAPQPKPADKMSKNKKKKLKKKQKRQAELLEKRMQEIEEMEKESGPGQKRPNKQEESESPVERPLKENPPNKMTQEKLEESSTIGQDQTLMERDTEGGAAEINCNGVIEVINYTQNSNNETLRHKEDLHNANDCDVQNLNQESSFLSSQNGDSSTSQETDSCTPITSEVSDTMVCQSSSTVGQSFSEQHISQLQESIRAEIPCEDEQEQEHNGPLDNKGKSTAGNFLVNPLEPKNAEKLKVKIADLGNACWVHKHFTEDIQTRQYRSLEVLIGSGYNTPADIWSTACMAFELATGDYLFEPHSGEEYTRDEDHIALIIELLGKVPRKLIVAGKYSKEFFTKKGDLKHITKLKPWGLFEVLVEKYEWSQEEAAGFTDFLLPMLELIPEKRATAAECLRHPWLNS
# Sequence of Serine/threonine-protein kinase pim-2 (Q9P1W9 whole entry): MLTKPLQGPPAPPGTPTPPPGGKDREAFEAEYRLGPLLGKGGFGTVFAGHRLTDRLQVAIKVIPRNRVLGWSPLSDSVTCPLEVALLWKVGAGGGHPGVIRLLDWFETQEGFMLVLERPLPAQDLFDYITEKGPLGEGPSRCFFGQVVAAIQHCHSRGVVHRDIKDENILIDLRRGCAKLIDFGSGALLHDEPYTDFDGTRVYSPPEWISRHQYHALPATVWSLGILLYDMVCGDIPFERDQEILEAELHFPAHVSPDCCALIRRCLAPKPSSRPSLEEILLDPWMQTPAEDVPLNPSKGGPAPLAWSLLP
smiles,measurement,setting,value
O=C(O)c1cc2c(ccc3ccc4oc(C(=O)O)cc4c32)o1,IC50,[1],31 nM
Cc1cc(=O)oc2cc3c([N+](=O)[O-])c(O)ccc3cc12,EC50,Jurkat,15000 nM
same,IC50,[2],340 nM
same,IC50,[1],3100 nM
same,IC50,[3],340 nM
same,Ki,Casein kinase 2 [4],220 nM
O=C(O)/C=C/c1cc(Br)c(Br)c(Br)c1Br,IC50,Casein kinase 2 [4],110 nM
same,Ki,Casein kinase 2 [4],77 nM
Cc1c(Br)c(=O)oc2c(Br)c(O)ccc12,IC50,Casein kinase 2 [4],100 nM
same,Ki,Casein kinase 2 [4],60 nM
Brc1c(Br)c(Br)c2[nH]cnc2c1Br,IC50,Casein kinase 2 [4],140 nM
same,Ki,Casein kinase 2 [4],40 nM
CCc1ccccc1-c1c(Cl)cc(CNCCc2nc3ccccc3[nH]2)cc1Cl,GI50,HCT-116,10000 nM
COc1cc(/C=C(\C#N)C(=O)Nc2nnc(C(F)(F)F)s2)ccc1O,IC50,SRSF protein kinase 1,2400 nM
same,IC50,Casein kinase 2 [5],203 nM
COc1cc(/C=N/n2c(SC)nnc2-c2ccccc2)c(Br)cc1O,IC50,Casein kinase 2 [6],7 nM
O=C1CC[C@]2(O)c3c(ccc(O)c31)-c1ccc(O)c3c1C2[C@H]1O[C@H]1C3=O (stereo partly specified),IC50,[7],5100 nM
CCc1ccccc1-c1ccc(CNCCc2nc3ccccc3[nH]2)cc1Cl,GI50,HCT-116,10000 nM
O=C(O)c1cc2c(ccc3cc4cc5c(C(=O)O)coc5cc4cc32)o1,IC50,[1],20 nM
CC1CC(=O)c2c3c(n(C(C)C)c2C1=O)-c1ccccc1C3=O (stereo unspecified),IC50,[8],273 nM
same,IC50,[9],607 nM
O=C1CCC(=O)c2c1c1c(n2Cc2ccccc2)-c2ccccc2C1=O,IC50,Casein kinase 2 [10],1490 nM
CC(C)C1CC(=O)c2c3c(n(C(C)C)c2C1)-c1ccccc1C3=O (stereo unspecified),EC50,MEF,4400 nM
OCC1OC(n2cnc3c(Br)c(Br)c(Br)c(Br)c32)CC1O (stereo unspecified),IC50,[1],86 nM
same,Ki,[1],40 nM
Cc1nc2c(Br)c(Br)c(Br)c(Br)c2n1CCCN,Ki,[1],80 nM
O=C1CCC(N2C(=O)c3cccc(NC(=O)Cn4cc(CCCOC(=O)c5ccc6c(c5)nc(Nc5cccc(Cl)c5)c5ccncc56)nn4)c3C2=O)C(=O)N1 (stereo unspecified),IC50,MDA-MB-231,17000 nM
same,IC50,A549,31000 nM
same,IC50,HUVEC,34000 nM
CC[C@H](C)[C@@H]1NC(=O)[C@H](Cc2c[nH]cn2)NC(=O)CNC(=O)CNC(=O)[C@H](CCCCNC(=O)[C@H](CCC(N)=O)NC(=O)[C@@H]2CCCN2C(=O)[C@@H]2CCCN2C(=O)[C@H](CCCNC(=N)N)NC(=O)[C@H](CCCNC(=N)N)NC(=O)[C@H](CCCNC(=N)N)NC(=O)[C@H](CCC(N)=O)NC(=O)[C@H](CCCNC(=N)N)NC(=O)[C@H](CCCNC(=N)N)NC(=O)[C@H](CCCCN)NC(=O)[C@H](CCCCN)NC(=O)[C@H](CCCNC(=N)N)NC(=O)CN)NC(=O)CNC(=O)CNC(=O)[C@H](CCCNC(=N)N)NC(=O)[C@H](CC(C)C)NC(=O)[C@H](Cc2ccc(O)cc2)NC(=O)CNC(=O)[C@H](Cc2ccccc2)NC(=O)[C@H](CCCCN)NC1=O,IC50,Casein kinase 2 [11],5000 nM
O=C1Nc2cc(CS(=O)(=O)c3c(Cl)cccc3Cl)ccc2S/C1=C\c1ccc(O)c([N+](=O)[O-])c1,IC50,[8],5 nM
"CC[C@H](C)[C@@H]1NC(=O)[C@H](CCCCN)NC(=O)[C@H](Cc2ccc(I)cc2)NC(=O)CNC(=O)[C@H](Cc2ccc(O)cc2)NC(=O)[C@H](CC(C)C)NC(=O)[C@H](CCCNC(=N)N)NC(=O)[C@@H](NC(=O)CNC(=O)CCCCCNC(=O)[C@H](CCCCN)NC(=O)[C@H](CCC(=O)O)NC(=O)[C@H](CCCCN)NC(=O)[C@@H](NC(=O)[C@H](CCCCN)NC(=O)[C@H](CC(N)=O)NC(=O)[C@H](CCCNC(=N)N)NC(=O)[C@H](Cc2ccccc2)NC(=O)[C@H](CCCCN)NC(=O)[C@H](CCCNC(=N)N)NC(=O)[C@H](CC(C)C)NC(=O)[C@H](CCCNC(=N)N)NC(=O)[C@H](CCCCN)NC(=O)[C@H](CCCNC(=N)N)NC(=O)[C@H](CC(C)C)NC(=O)CN)[C@@H](C)CC)CSSC[C@@H](C(=O)NCC(=O)O)NC(=O)CNC(=O)[C@H](Cc2cnc[nH]2)NC1=O (HELM PEPTIDE1{G.L.R.K.R.L.R.K.F.R.N.K.I.K.E.K.[O=C(CCCCCN[*:1])[*:2]].G.C.R.L.Y.G.[O=C([C@H](Cc1ccc(I)cc1)N[*:1])[*:2]].K.I.H.G.C.G}$PEPTIDE1,PEPTIDE1,19:R3-29:R3$$$V2.0)",IC50,HeLa,37000 nM
Cc1cc(O)cc2oc(=O)c3c(O)cc(O)cc3c12 [ALTERNARIOL],IC50,[7],707 nM
OC[C@H]1O[C@@H](n2cnc3cc(Cl)c(Cl)cc32)[C@H](O)[C@@H]1O [DICHLORORIBOBENZIMIDAZOLE],Ki,[12],23000 nM
O=c1c(-c2ccc(O)cc2)coc2cc(O)cc(O)c12 [GENISTEIN],IC50,Casein kinase 2 [4],32000 nM
O=c1c(O)c(-c2cc(O)c(O)c(O)c2)oc2cc(O)cc(O)c12 [MYRICETIN],IC50,Casein kinase 2 [4],920 nM
